# Values quoted from earlier work, collected in patent US20170119783A1, “Method for Treating Cognitive Impairment Associated With Neurodegenerative Disorders” (priority 2014, published 2017).
# Like-named read-outs stand apart in the source and are kept apart here.
# Experiments:
# nucleic acid synthesis = conditions: relative to artemisinin
# [1] = system: Ehrlich ascots tumor cells
# cancer cells = conditions: more effective for hepatoma and embryonic lung cells than human gastric cancer cells
# [2] = within the group of artemisinin analogs
SMILES,water solubility (in words),"ability to inhibit nucleic acid synthesis, times the activity of artemisinin (nucleic acid synthesis) [times]",efficacy against Ehrlich ascots tumor cells (in words) [1],further results
CO[C@H]1O[C@@H]2O[C@@]3(C)CC[C@H]4[C@H](C)CC[C@@H]([C@H]1C)[C@@]24OO3 [Artemether],higher solubility in water,,,
CCCOC(=O)OC1O[C@@H]2O[C@@]3(C)CC[C@H]4[C@H](C)CC[C@@H]([C@H]1C)[C@@]24OO3 (stereo partly shown) [propylcarbonate dihydroartemisinin],higher solubility in water,100,,
C[C@H]1[C@H](OC(=O)CCC(=O)O)O[C@@H]2O[C@@]3(C)CC[C@H]4[C@H](C)CC[C@@H]1[C@@]24OO3 [artesunate],,100,,"antimalarial potency, times that of artemisinin (Plasmodium falciparum; relative to artemisinin): 5.2 times"
C[C@H]1[C@@H](O)O[C@@H]2O[C@@]3(C)CC[C@H]4[C@H](C)CC[C@@H]1[C@@]24OO3 [Dihydroartemisinin],higher solubility in water,,,
C[C@H]1[C@H](N2CCS(=O)(=O)CC2)O[C@@H]2O[C@@]3(C)CC[C@H]4[C@H](C)CC[C@@H]1[C@@]24OO3 [Artemisone],,,,antimalarial activity (in words) (Plasmodium falciparum; Haynes et al. 2006): high antimalarial activity
C[C@H]1[C@H](OC(=O)CCC(=O)[O-])O[C@@H]2O[C@@]3(C)CC[C@H]4[C@H](C)CC[C@@H]1[C@@]24OO3.[Na+] [sodium artesunate],,,efficacy against Ehrlich ascots tumor cells,
"C[C@@H]1CC[C@H]2[C@@H](C)C(=O)O[C@@H]3O[C@@]4(C)CC[C@@H]1[C@]32OO4 [Artemisinin, (3R,5aS,6R,8aS,9R,12S,12aR)-octahydro-3,6,9-trimethyl-3,12-epoxy-12H-pyr-ano[4,3-j]-1,2-benzodioxepin-10(3H)-one]",poor water solubility,,efficacy against Ehrlich ascots tumor cells,toxicity to cancer cells in vitro (in words) (cancer cells): toxic to cancer cells in vitro
C[C@H]1[C@@H](OCc2ccc(C(=O)O)cc2)O[C@@H]2O[C@]3(C)CC[C@H]4[C@H](C)CC[C@@H]1[C@@]24OO3 [sodium artelinate],,,efficacy against Ehrlich ascots tumor cells,
CCO[C@H]1O[C@@H]2O[C@@]3(C)CC[C@H]4[C@H](C)CC[C@@H]([C@H]1C)[C@@]24OO3 [arteether],higher solubility in water,100,efficacy against Ehrlich ascots tumor cells,
C[C@@H]1[C@H](OCc2ccc(C(=O)O)cc2)O[C@@H]2O[C@@]3(C)CC[C@@H]4[C@@H](C)CC[C@@H]1[C@]24OO3 [Artelinic acid],most water-soluble,,efficacy against Ehrlich ascots tumor cells,water solubility (in words) (listed as artelinic acid): higher solubility in water; stability (in words) [2]: most stable
